pIC50: −log10 of the molar value.
Assays:
SHP2-E76K = SHP2-E76K (Homo sapiens (Human), UniProt Q06124, E76K); experiment: Time-dependent inhibition (preincubation) assay; type: biochemical; conditions: preincubation 1, 5, 10, 20, or 60 min with SHP2-E76K
Experimental: PTPs contain a highly nucleophilic cysteine that is essential for catalytic activity, but is susceptible to oxidation and covalent modifications which abrogate its nucleophilic function and phosphatase activity. Because the methylenebenzothiophenone moiety of our inhibitors could potentially act as a Michael acceptor and thus covalently bind to the catalytic cysteine, we tested whether the observed inhibition of SHP2 was dependent on the preincubation time of inhibitor and enzyme. An irreversible covalent inhibitor may show time-dependent inhibition, with increased potency at longer incubation times. Conversely, the potency of a non-covalent inhibitor is expected to be insensitive to the time it is incubated with the enzyme. To test for time-dependent inhibition, #01 (#01) at 10 different concentrations was preincubated with SHP2-E76K for 1, 5, 10, 20, or 60 min, before the DiFMUP substrate was added to the reaction mixture and initial rates were recorded (FIG. 2C).

[1] = system: MOLM-13 AML cells (expressing WT SHP2); experiment: Cell viability assay (CellTiter-Glo), MOLM-13; type: cell-based; conditions: Homo sapiens, MOLM-13, 72 h, regular MOLM-13 cells, CRISPR comparison experiment
Experimental: (§1) Next, we performed an 11-day colony formation assay with TNBC cells treated with #02 or SHP099 at 5, 10, or 20 μM (FIG. 3D).
Finally, we evaluated the selectivity of our top two compounds, #01 and #02, on MOLM-13 AML cells in which SHP2 was depleted using CRISPR-Cas9 knock-out (KO). High-efficiency Cas9-editing MOLM-13 cells were generated by transducingMOLM-13 cells with a Cas9 lentiviral construct. Stable clones were tested for editing efficiency by performing TIDE analysis (45), and these MOLM13-Cas9 cells were transduced with a lentiviral construct containing an AAVS1 single guide RNA (sgRNA) and an mCherry reporter for bulk-sorting of cells with successful AAVS1 editing. […] Cells were treated with inhibitors at various concentrations (ranging from […] to 58 nM) or vehicle control (DMSO) for 72 h, before cell viability was assessed.
Viability of AML, esophageal carcinoma, and TF-1 cells was assessed using the ATP-depletion assay CellTiter-Glo® (Promega). Cells were harvested at 1×10^6/mL to 2×10^6 cells/mL with cell numbers determined by trypan blue using the Countess Cell counter (Thermo Scientific) and resuspended in culture media. […] Luminescence was read on a Tecan Spark® Multimode Microplate Reader and data analyzed using Graph Pad Prism software. […]

[2] = system: TNBC cells (BT-549 and MDA-MB-468); experiment: 11-day colony formation assay; type: cell-based; conditions: 5, 10, or 20 μM, 11 days
Experimental: as §1
MDA-MB-468 and […] triple-negative breast cancer cells were maintained in DMEM+10% FBS supplemented with 1× Penicillin-Streptomycin/L-Glutamine (Omega Scientific). 1.5K cells (in […]) were seeded per well of a standard 24-well tissue culture plate (Falcon) and allowed to adhere for 24 h, before the addition of drug(s) as described. After a further 96 h, media was replaced with fresh media containing the same test compounds and concentrations. After 11 days, media was removed and cells stained with 0.5% Crystal Violet (in 20% methanol) for 20 min with agitation @ 80 rpm. Stain was removed and plates with stained cells were washed by being submerged in excess deionized water and allowed to air dry overnight before imaging.

Chain of SHP2-E76K (Q06124 whole entry E76K): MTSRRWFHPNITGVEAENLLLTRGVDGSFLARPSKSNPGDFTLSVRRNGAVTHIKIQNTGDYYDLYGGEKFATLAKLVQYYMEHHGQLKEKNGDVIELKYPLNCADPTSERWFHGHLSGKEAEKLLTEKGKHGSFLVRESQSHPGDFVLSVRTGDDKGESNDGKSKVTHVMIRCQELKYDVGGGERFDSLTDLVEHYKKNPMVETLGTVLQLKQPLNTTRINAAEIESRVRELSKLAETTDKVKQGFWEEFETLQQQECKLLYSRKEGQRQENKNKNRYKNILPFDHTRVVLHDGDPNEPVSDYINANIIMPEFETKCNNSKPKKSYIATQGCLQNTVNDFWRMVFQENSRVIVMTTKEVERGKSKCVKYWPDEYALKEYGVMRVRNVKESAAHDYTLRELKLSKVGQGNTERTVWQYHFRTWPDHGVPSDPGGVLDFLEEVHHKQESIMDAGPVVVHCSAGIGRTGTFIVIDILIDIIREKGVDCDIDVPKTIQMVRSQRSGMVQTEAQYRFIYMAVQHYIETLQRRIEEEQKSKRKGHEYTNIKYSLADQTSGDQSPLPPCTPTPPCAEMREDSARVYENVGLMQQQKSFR

| time dependence of inhibition (SHP2-E76K) | pIC50 [1] | SMILES | effect on colony formation [2] |
| --- | --- | --- | --- |
| not time-dependent | – | Nc1ccc(NC(=O)c2cc(-c3ccc(/C=C4\Sc5ccccc5C4=O)o3)ccc2O)cc1 [#01, (Z)—N-(4-Aminophenyl)-2-hydroxy-5-(5-((3-oxobenzo[b]thiophen-2(3H)-ylidene)methyl)furan-2-yl)benzamide] | – |
| – | 4.82 | O=C(Nc1ccccc1)c1cc(-c2ccc(/C=C3\Sc4ccccc4C3=O)o2)ccc1O [#02, (Z)-2-hydroxy-5-(5-((3-oxobenzo[b]thiophen-2(3H)-ylidene)methyl)furan-2-yl)-N-phenylbenzamide] | colonies were undetectable |

Source: US20250026741A1, “INHIBITORS OF THE ONCOGENIC SHP2 PHOSPHATASE AND USES THEREOF” (Sanford Burnham Prebys Medical Discovery Institute, priority 2021, published 2025)
